In patent US6335360B1, “Tripeptidyl peptidase inhibitors” (Institut National de la Sante et de la Recherche Medicale …, priority 1997, dated 2002):
Where a name gives a salt, the structure may show the parent alone. Read-outs that look alike come from different tables or passages of the source.

Legend:
[1] = molecular target: T1, membrane TPP II (tripeptidyl peptidase II) (Rattus norvegicus, UniProt Q64560); assay: Inhibition of AAF-Amc hydrolysis by cerebral membranes (inhibition of TPP II); format: biochemical; settings: for Ki: rat cerebral cortex membranes; for activity (stated in words): stereoisomers not separated (2(R/S) mixture)
T1 construct: evaluated by measuring the activity of membrane TPP II; from tissue; host or cells: rat cerebral cortex membranes
T1 sequence (Q64560 whole entry): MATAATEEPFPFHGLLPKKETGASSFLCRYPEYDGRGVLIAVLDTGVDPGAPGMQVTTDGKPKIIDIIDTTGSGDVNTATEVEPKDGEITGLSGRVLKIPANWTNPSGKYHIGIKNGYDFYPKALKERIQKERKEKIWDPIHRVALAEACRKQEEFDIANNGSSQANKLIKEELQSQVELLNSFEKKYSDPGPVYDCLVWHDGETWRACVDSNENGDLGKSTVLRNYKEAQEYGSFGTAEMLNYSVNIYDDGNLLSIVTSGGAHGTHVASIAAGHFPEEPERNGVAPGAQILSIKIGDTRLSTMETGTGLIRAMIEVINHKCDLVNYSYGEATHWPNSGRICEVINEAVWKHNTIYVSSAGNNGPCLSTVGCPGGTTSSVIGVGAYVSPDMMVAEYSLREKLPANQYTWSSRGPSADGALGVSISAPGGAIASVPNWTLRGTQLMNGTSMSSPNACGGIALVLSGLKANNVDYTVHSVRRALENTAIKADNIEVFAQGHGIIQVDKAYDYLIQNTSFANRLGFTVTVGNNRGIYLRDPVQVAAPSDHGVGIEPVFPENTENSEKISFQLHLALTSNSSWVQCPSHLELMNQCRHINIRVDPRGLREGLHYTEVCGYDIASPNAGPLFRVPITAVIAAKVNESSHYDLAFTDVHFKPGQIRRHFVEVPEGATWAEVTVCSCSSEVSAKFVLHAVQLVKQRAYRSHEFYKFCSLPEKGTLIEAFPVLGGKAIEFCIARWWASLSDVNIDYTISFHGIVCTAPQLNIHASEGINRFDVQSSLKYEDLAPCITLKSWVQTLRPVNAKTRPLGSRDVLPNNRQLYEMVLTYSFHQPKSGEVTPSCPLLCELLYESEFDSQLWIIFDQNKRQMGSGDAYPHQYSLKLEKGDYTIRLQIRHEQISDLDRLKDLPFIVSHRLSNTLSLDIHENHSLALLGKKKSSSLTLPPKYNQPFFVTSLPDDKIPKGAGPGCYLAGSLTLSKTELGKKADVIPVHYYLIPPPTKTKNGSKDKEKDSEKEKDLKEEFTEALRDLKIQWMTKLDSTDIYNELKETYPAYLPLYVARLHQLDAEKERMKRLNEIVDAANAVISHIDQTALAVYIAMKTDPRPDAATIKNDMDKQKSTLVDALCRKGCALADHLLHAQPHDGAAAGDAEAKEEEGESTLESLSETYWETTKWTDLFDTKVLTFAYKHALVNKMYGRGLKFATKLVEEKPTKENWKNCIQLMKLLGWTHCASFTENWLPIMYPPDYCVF
Description: The potency of the compounds of the invention was evaluated by measuring the activity of membrane TPP II.
Membranes of rat cerebral cortex were obtained by centrifugation (200,000×g min) of a homogenate in 10 volumes of a 50 mM potassium phosphate buffer, pH 7.4.
The centrifugation pellet was carefully washed and taken up in a buffer containing 10% glycerol and 0.1% Brij 35 to obtain a concentration of 25 mg protein/ml.
After 25 minutes of preincubation, incubation is carried out in 0.1 ml of a buffer containing 0.1% Brij 35, […], 25 μg of membrane protein and 50 μm of substrate Ala-Ala-Phe-Amc (AAF-Amc). Liberation of 7-amino4-methylcoumarin (Amc) is evaluated by fluorimetry.

[2] = Table 2, comparative compounds known in the art, substrate AAF-Amc, read-out: Ki (nM), Inhibition of AAF-Amc Hydrolysis by Cerebral Membranes, comparative compound
[3] = Table 1, substrate Ala-Ala-Phe-Amc, Ki calculated from 50% inhibition concentration and Km 23 μM, read-out: Ki (nM), Inhibition of AAF-Amc Hydrolysis by Cerebral Membranes

SMILES	melting point	Ki [1, 3]	further results
CC[C@H](N)C(=O)C1c2c(ccc3ccccc23)N[C@@H]1C(=O)NCC(F)(F)F.O=C(O)C(F)(F)F (stereo partly shown)	64 to 78 °C	–	–
CCCCNC(=O)[C@H]1Nc2ccc3ccccc3c2C1C(=O)[C@@H](N)CC.O=C(O)C(F)(F)F (stereo partly shown)	76 to 88 °C	–	–
CC[C@H](N)C(=O)N1c2cccc(OC)c2C[C@H]1C(=O)NCC(F)(F)F.O=C(O)C(F)(F)F	125 to 149 °C	–	–
CCCCNC(=O)C1Cc2cc(O)ccc2N1C(=O)[C@@H](N)CC (mixture of isomers) [C.C.4, 1-(2(S)-aminobutyryl)-5-hydroxyindoline-2(R/S)-carboxylic acid n-butylamide, reference compound]	–	–	Ki [1, 2]: 6.6 nM
CCCCNC(=O)C1Cc2cc(OC)ccc2N1C(=O)[C@@H](N)CC (mixture of isomers) [C.C.5, 1-(2(S)-aminobutyryl)-5-methoxyindoline-2(R/S)-carboxylic acid n-butylamide, reference compound]	–	–	Ki [1, 2]: 8 nM
CC[C@H](N)C(=O)N1c2ccc(O)cc2CC1C(=O)NCC(F)(F)F (mixture of isomers) [Example 6, 1-(2(S)-aminobutyryl)-5-hydroxyindoline-2(R/S)-carboxylic acid (2,2,2,-trifluoroethyl)amide trifluoroacetate]	–	2.8 nM	Ki ([1]; Table 2, compounds of the invention, substrate AAF-Amc, read-out: Ki (nM), Inhibition of AAF-Amc Hydrolysis by Cerebral Membranes, compound of the invention): 2.8 nM
CC[C@H](N)C(=O)N1c2cccc(Cl)c2CC1C(=O)NCC(F)(F)F.O=C(O)C(F)(F)F (mixture of isomers) [Example 7, 1-(2(S)-aminobutyryl)-4-chloroindoline-2(R/S)-carboxylic acid (2,2,2-trifluoroethyl)amide trifluoroacetate] [listing 1 of 2 here]	–	0.56 nM	activity (stated in words) [1]: useful activity
CC[C@H](N)C(=O)N1c2cccc(F)c2CC1C(=O)NCC(F)(F)F.O=C(O)C(F)(F)F (mixture of isomers) [Example 8, 1-(2(S)-aminobutyryl)-4-fluoroindoline-2(R/S)-carboxylic acid (2,2,2-trifluoroethyl)amide trifluoroacetate] [listing 1 of 2 here]	–	0.36 nM	activity (stated in words) [1]: useful activity
CC[C@H](N)C(=O)N1c2ccc(OC)cc2CC1C(=O)NCC(F)(F)F (mixture of isomers) [Example 9, 1-(2(S)-aminobutyryl)-5-methoxyindoline-2(R/S)-carboxylic acid (2,2,2-trifluoroethyl)amide trifluoroacetate]	–	0.7 nM	–
CC[C@H](N)C(=O)N1c2ccc(OC(F)(F)F)cc2CC1C(=O)NCC(F)(F)F (mixture of isomers) [Example 10, 1-(2(S)-aminobutyryl)-5-trifluoromethoxyindoline-2(R/S)-carboxylic acid (2,2,2-trifluoroethyl)amide trifluoroacetate]	–	1.1 nM	–
CCCCNC(=O)C1Cc2c(ccc(Cl)c2Cl)N1C(=O)[C@@H](N)CC.O=C(O)C(F)(F)F (mixture of isomers)	115 to 124 °C	–	–
CC[C@H](N)C(=O)N1c2ccc(Cl)c(Cl)c2CC1C(=O)NCC(F)(F)F.O=C(O)C(F)(F)F (mixture of isomers)	68 to 78 °C	–	–
CC[C@H](N)C(=O)N1c2cccc(C)c2CC1C(=O)NCC(F)(F)F.O=C(O)C(F)(F)F (mixture of isomers)	109 to 122 °C	–	–
CC[C@H](N)C(=O)N1c2ccc(OC)c(OC)c2CC1C(=O)NCC(F)(F)F.O=C(O)C(F)(F)F (mixture of isomers)	79 to 87 °C	–	–
CC[C@H](N)C(=O)N1c2ccc3c(c2CC1C(=O)NCC(F)(F)F)OCO3.O=C(O)C(F)(F)F (mixture of isomers)	89 to 98 °C	–	–
CC[C@H](N)C(=O)N1c2cccc(Cl)c2CC1C(=O)NCC(F)(F)F.O=C(O)C(F)(F)F (mixture of isomers) [Example 7, 1-(2(S)-aminobutyryl)-4-chloroindoline-2(R/S)-carboxylic acid (2,2,2-trifluoroethyl)amide trifluoroacetate] [listing 2 of 2 here]	104 to 106 °C	–	–
CC[C@H](N)C(=O)N1c2cccc(F)c2CC1C(=O)NCC(F)(F)F.O=C(O)C(F)(F)F (mixture of isomers) [Example 8, 1-(2(S)-aminobutyryl)-4-fluoroindoline-2(R/S)-carboxylic acid (2,2,2-trifluoroethyl)amide trifluoroacetate] [listing 2 of 2 here]	57.5 to 58.5 °C	–	–
CC[C@H](N)C(=O)N1c2ccc(OC)cc2CC1C(=O)NCC(F)(F)F.O=C(O)C(F)(F)F (mixture of isomers) [Example 9, 1-(2(S)-aminobutyryl)-5-methoxyindoline-2(R/S)-carboxylic acid (2,2,2-trifluoroethyl)amide trifluoroacetate]	63.5 to 66 °C	–	–
CCCCNC(=O)[C@@H]1Cc2cc(Cl)ccc2N1C(=O)[C@@H](N)CC [C.C.1, 1-(2(S)-aminobutyryl)-5-chloroindoline-2(S)-carboxylic acid n-butylamide, reference compound]	–	–	Ki [1, 2]: 2.5 nM
CC[C@H](N)C(=O)N1c2ccc(Cl)cc2C[C@H]1C(=O)NCC(F)(F)F.O=C(O)C(F)(F)F [Example 1, 1-(2(S)-aminobutyryl)-5-chloroindoline-2(S)-carboxylic acid (2,2,2-trifluoroethyl)amide trifluoroacetate]	34 to 35 °C	0.4 nM	–
CC[C@H](N)C(=O)N1c2ccc(Cl)cc2C[C@H]1C(=O)NCCCl.O=C(O)C(F)(F)F [Example 2, 1-(2(S)-Aminobutyryl)-5-chloroindoline-2(S)-carboxylic acid 2-chloroethylamide trifluoroacetate]	80 to 88 °C	1.7 nM	–
CC[C@H](N)C(=O)N1c2ccccc2C[C@H]1C(=O)NCCSC.O=C(O)C(F)(F)F [Example 3, 1-(2(S)-aminobutyryl)-indoline-2(S) carboxylic acid (2-methylthioethyl)amide trifluoroacetate]	59.5 to 60.5 °C	–	–
CC[C@H](N)C(=O)N1c2ccccc2C[C@H]1C(=O)NCC1CC1.O=C(O)C(F)(F)F [Example 4, 1-(2(S)-aminobutyryl)-indoline-2(S)-carboxylic acid N-(cyclopropylmethyl)amide trifluoroacetate]	57 to 74 °C	–	–
